Laboratory results published in ChEMBL document CHEMBL1799935, “Identification of new inhibitors of protein kinase R guided by statistical modeling” (Bioorg Med Chem Lett, 2011).
Calls of active or inactive are those of the source. The calls are words filed in the database; no cut-off is given here.

molecular target: T1, Interferon-induced, double-stranded RNA-activated protein kinase (Homo sapiens, UniProt P19525); test: Inhibition of human recombinant PKR autophosphorylation using poly[I:C] after 10 mins by luminescent assay; details: not given
T1 sequence (P19525 whole entry): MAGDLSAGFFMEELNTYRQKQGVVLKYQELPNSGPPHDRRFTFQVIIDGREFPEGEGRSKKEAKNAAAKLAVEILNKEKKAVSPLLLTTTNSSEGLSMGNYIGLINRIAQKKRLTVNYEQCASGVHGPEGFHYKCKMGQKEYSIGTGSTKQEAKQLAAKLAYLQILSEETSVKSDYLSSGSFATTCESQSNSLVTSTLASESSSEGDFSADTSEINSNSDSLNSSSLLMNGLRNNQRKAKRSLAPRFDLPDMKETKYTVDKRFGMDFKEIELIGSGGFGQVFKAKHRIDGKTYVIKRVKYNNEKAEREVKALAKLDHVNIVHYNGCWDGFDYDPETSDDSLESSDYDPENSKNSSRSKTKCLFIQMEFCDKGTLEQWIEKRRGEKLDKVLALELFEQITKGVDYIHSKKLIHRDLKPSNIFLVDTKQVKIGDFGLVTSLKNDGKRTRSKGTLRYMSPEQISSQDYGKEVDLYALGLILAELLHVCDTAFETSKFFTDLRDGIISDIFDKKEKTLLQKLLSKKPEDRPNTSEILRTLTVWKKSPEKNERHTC

Point of comparison: `CCn1cnc2c(Nc3cccc(Cl)c3)nc(N[C@@H]3CCCC[C@@H]3N)nc21`, IC50 3 µM. Against it:
- COc1ccc2[nH]c(C)c(-c3ccnc(Nc4ccc(Cl)cc4)n3)c2c1 — 17-fold higher, 50 µM
- N#Cc1cnc2cnc(NCc3cccnc3)cc2c1Nc1ccc(F)c(Cl)c1 — 12-fold lower, 0.25 µM
- N#C/C(=C1/Nc2ccccc2S1)c1ccnc(NCCc2cccnc2)n1 — lower, < 0.1 µM
- COc1ccc2[nH]cc(-c3ccnc(NCCN4CCOCC4)n3)c2c1 — higher, > 100 µM
- c1ccc(-c2[nH]c3ccccc3c2-c2ccnc(NCCN3CCOCC3)n2)cc1 — 4-fold higher, 12 µM
- Oc1c2ccccc2c2c3c(cccc13)N=N2 [SP-600125] — 2.7-fold higher, 8 µM
- O=c1nncc(Nc2ccc3cn[nH]c3c2)[nH]1 — 4.3-fold higher, 13 µM
- Cc1[nH]c2ccccc2c1-c1ccnc(NCCc2c[nH]c3ccccc23)n1 — 3-fold higher, 9 µM
- O=C(O)c1ccc2c3c1cccc3c(=O)n1c3ccccc3nc21 — lower, < 0.1 µM
- Cc1[nH]c2ccccc2c1-c1ccnc(N2CCN(c3ccccn3)CC2)n1 — higher, > 100 µM
- Cc1[nH]c2ccccc2c1-c1ccnc(NCc2cccnc2)n1 — 15-fold higher, 45 µM
- NCc1ccc(C(=O)N/N=C2\C(=O)Nc3ccc(Br)cc32)cc1 — 4-fold higher, 12 µM
- Cc1cc(Nc2nc(-c3ccccc3)nc3ccccc23)[nH]n1 — 5-fold higher, 15 µM
- Cc1[nH]c2ccc(Cl)cc2c1-c1ccnc(N2CCN(c3ccc(F)cc3)CC2)n1 — higher, > 100 µM
- O=C(O)/C=C/c1cc(Br)c(Br)c(Br)c1Br — 2.3-fold higher, 7 µM
- O=C1NC(=O)/C(=C/c2c[nH]c3ccccc23)N1 — 3.5-fold higher, 10.5 µM
- Fc1ccc(N2CCN(c3nccc(-c4c[nH]c5ccccc45)n3)CC2)cc1 — higher, > 100 µM
- CSc1cccc(N/C=C2\C(=O)Nc3ccccc32)c1 — within 1.5-fold, 2.5 µM
- COC(=O)c1ccc2c(-c3ccnc(SCCN(C)C)n3)c[nH]c2c1 — higher, > 100 µM
- COC(=O)c1ccc2c(-c3ccnc(NCCN4CCOCC4)n3)c[nH]c2c1 — 6-fold higher, 18 µM
- O=C1NC(=O)c2c1c1c3ccccc3[nH]c1c1[nH]c3cc(Br)ccc3c21 — 2-fold higher, 6 µM
- COCCCNc1nccc(-c2c(C)[nH]c3ccc(Cl)cc23)n1 — the same, 3 µM
- COC(=O)[C@]1(O)C[C@@H]2O[C@@]1(C)n1c3ccccc3c3c4c(c5c6ccccc6n2c5c31)C(=O)NC4 (single isomer, unassigned) — lower, < 0.1 µM
- C=C1NNC(=O)/C1=N\Nc1ccc(S(N)(=O)=O)cc1 — 3.7-fold higher, 11 µM
- COc1ccc2c(c1)/C(=C/c1cnc[nH]1)C(=O)N2 [SU-9516] — 1.7-fold higher, 5 µM
- COc1ccc(Nc2nccc(-c3c(C)[nH]c4ccc(OC)cc34)n2)cc1 — 18-fold higher, 55 µM
- Cc1[nH]c2ccc(Cl)cc2c1-c1ccnc(Nc2cccc(Cl)c2)n1 — within 1.5-fold, 2.5 µM
- Cc1[nH]c2ccc(Cl)cc2c1-c1ccnc(NCCN2CCOCC2)n1 — 4-fold higher, 12 µM
- CN1CCN(c2ccc(Nc3ncnc4ccc([N+](=O)[O-])cc34)cc2)CC1 — 5-fold higher, 15 µM
- COc1ccc2[nH]c(C)c(-c3ccnc(NC4CCCC4)n3)c2c1 — 2-fold lower, 1.5 µM
- Cc1[nH]c2ccc(Cl)cc2c1-c1ccnc(NCc2cccnc2)n1 — 16-fold higher, 48 µM
- Nc1nc(Nc2ccc(OC(F)(F)F)cc2)c2nc[nH]c2n1 — 6.7-fold higher, 20 µM
- c1cc(-c2cnn3cc(-c4ccc(OCCN5CCCCC5)cc4)cnc23)ccn1 [DORSOMORPHIN] — 5.3-fold higher, 16 µM
- COCCCNc1nccc(-c2c(C)[nH]c3ccccc23)n1 — 2-fold lower, 1.5 µM
- COc1ccc2c(c1)/C(=N/NC(=O)c1cc(Br)ccc1O)C(=O)N2 — 3.1-fold higher, 9.4 µM
- CN1C(=O)NC(=O)/C(=C\c2c[nH]c3ccc(O)cc23)C1=O — the same, 3 µM
- Cn1nc2c3c(cccc31)C(=O)c1ccccc1-2 — 4-fold higher, 12 µM
- Nc1nc(Nc2ccc(S(N)(=O)=O)cc2)nn1C(=O)Nc1c(F)cccc1F — 2.7-fold higher, 8 µM
- CC(C)n1cnc2c(Nc3cccc(Cl)c3)nc(NCCO)nc21 — 5.3-fold higher, 16 µM
- Cc1[nH]c2ccccc2c1-c1ccnc(N2CCCC2)n1 — higher, > 100 µM
- O=C1Cc2ccc(Oc3ccc4c(c3)NC(=O)C4)cc2N1 — 4.7-fold higher, 14 µM
- Cc1[nH]c2ccccc2c1-c1ccnc(Nc2ccccc2Cl)n1 — 6.3-fold higher, 19 µM
- Cc1[nH]c2ccccc2c1-c1ccnc(Nc2cccnc2)n1 — 30-fold lower, 0.1 µM
- Cc1[nH]c2ccc(Cl)cc2c1-c1ccnc(NC2CCCC2)n1 — 2.7-fold higher, 8 µM
- Cc1[nH]c2ccccc2c1-c1ccnc(Nc2ccc(Cl)cc2)n1 — 5-fold lower, 0.6 µM
- O=C1NC(=O)c2c1c1c3ccccc3[nH]c1n1cncc21 [ISOGRANULATIMIDE] — lower, < 0.1 µM
- N#CCCc1ccc2c(c1)C1Nc3ccc([N+](=O)[O-])cc3C1CC(=O)N2 (configuration not stated) — within 1.5-fold, 3.5 µM
- FC(F)(F)c1nnc2ccc(NCCc3c[nH]c4ccccc34)nn12 — 6.3-fold higher, 19 µM
- c1ccc2c(CCNc3nccc(-c4c[nH]nc4-c4ccncc4)n3)c[nH]c2c1 — 17-fold higher, 51 µM
- Nc1cccc(-c2cc3c(Oc4cccc(O)c4)ncnc3[nH]2)c1 — within 1.5-fold, 4 µM
- Cc1[nH]c2ccc(Cl)cc2c1-c1ccnc(N2CCCC2)n1 — higher, > 100 µM
- C=C1NNC(=O)N=C1Nc1ccc2cn[nH]c2c1 — 5.3-fold higher, 16 µM
- Cn1ncc2c(N3CCOCC3)nc(NCCc3c[nH]c4ccccc34)nc21 [TDR79432] — 3.7-fold higher, 11 µM
- O=C(Nc1cccc(Nc2nccc(Nc3cccc(C(F)(F)F)c3)n2)c1)C1CC1 [ANILINOPYRIMIDINE1] — 6.7-fold higher, 20 µM
- Fc1ccc(Nc2nccc(-c3c(-c4ccccc4)[nH]c4ccccc34)n2)cc1 — 2.3-fold higher, 7 µM
- Nc1nc(Nc2ccc(S(N)(=O)=O)cc2)nn1C(=S)Nc1c(F)cccc1F — 1.9-fold lower, 1.6 µM
- c1ccc(-c2[nH]c3ccccc3c2-c2ccnc(NC3CCCC3)n2)cc1 — higher, > 100 µM
- COC(=O)c1ccc2c(-c3ccnc(NCCO)n3)c[nH]c2c1 — 3-fold higher, 9 µM
- Cc1[nH]c2ccc(Cl)cc2c1-c1ccnc(Nc2ccc(N3CCN(C)CC3)cc2)n1 — 30-fold lower, 0.1 µM
- Cc1[nH]c2ccccc2c1-c1ccnc(Nc2ccc(F)cc2)n1 — 20-fold lower, 0.15 µM
- NC(=O)Nc1sc(-c2ccc(F)cc2)cc1C(N)=O — 12-fold lower, 0.25 µM
- Cc1[nH]c2ccccc2c1-c1ccnc(Nc2cccc(Cl)c2)n1 — 10-fold lower, 0.3 µM
- COc1ccc2c(c1)[nH]c1c(N3CCN(C(N)=O)CC3)ncnc12 — 4.3-fold higher, 13 µM
- O=C1NCc2c1c1c3ccccc3n3c1c1c2c2ccccc2n1C1CCC3O1 (configuration not stated) — 4-fold lower, 0.75 µM
- c1ccc(-c2[nH]c3ccccc3c2-c2ccnc(NCc3cccnc3)n2)cc1 — higher, > 100 µM
- O=C1NC(=O)/C(=C/c2c[nH]c3ccc(Br)cc23)N1 — within 1.5-fold, 4 µM
- O=Nc1c(-c2c(O)[nH]c3ccccc23)[nH]c2ccccc12 [INDIRUBIN-3-MONOXIME] — lower, < 0.1 µM
- Cc1[nH]c2ccccc2c1-c1ccnc(N2CCN(c3ccc(F)cc3)CC2)n1 — higher, > 100 µM
- Cc1[nH]c2ccccc2c1-c1ccnc(NC(CO)C(C)C)n1 (configuration not stated) — 17-fold higher, 50 µM
- OCCNc1nccc(-c2c[nH]c3ccccc23)n1 — 3.7-fold higher, 11 µM
- Nc1n[nH]c2nc3ccccc3nc12 [QUINOXALINE1] — 2-fold higher, 6 µM
- Nc1ncnc2[nH]nc(Nc3ccc(F)cc3)c12 — 1.7-fold higher, 5 µM
- O=C1Nc2cc(Br)ccc2/C1=C1/Nc2ccccc2/C1=N\O [6BIO] — 5-fold lower, 0.6 µM
- O=C1Nc2ccccc2/C1=C1/Nc2ccccc2/C1=N\OCCC(O)CO (configuration not stated) — lower, < 0.1 µM
- O=C1NC(=O)/C(=C\c2c[nH]c3ccccc23)N1 — 3.7-fold higher, 11 µM
- Cc1[nH]c2ccccc2c1-c1ccnc(N2CCOCC2)n1 — 30-fold higher, 90 µM
- CCN(CC)C(=O)c1ccc(Nc2nc(OCC3CCCCC3)c3nc[nH]c3n2)cc1 — 1.5-fold lower, 2 µM
- Cc1[nH]c2ccccc2c1-c1ccnc(Nc2ccc(F)c(F)c2)n1 — 2-fold lower, 1.5 µM
- Cc1[nH]c2ccccc2c1-c1ccnc(NCCO)n1 — 3.7-fold higher, 11 µM

tested on: Vero; test: Cytotoxicity against african green monkey Vero cells assessed as cell survival at up to 100 uM after 48 hrs by MTS assay; assay type: cell-based; details: chlorocebus sabaeus

With `Cc1[nH]c2ccccc2c1-c1ccnc(NCCc2c[nH]c3ccccc23)n1` the Activity was “Non-toxic”.

tested on: not listed separately; test: Cytotoxicity against mouse bone marrow macrophages assessed as cell survival at up to 100 uM after 48 hrs by MTS assay; assay type: cell-based; details: macrophage

In the case of `Cc1[nH]c2ccccc2c1-c1ccnc(NCCc2c[nH]c3ccccc23)n1`, the Activity is reported as “Non-toxic”.

tested on: not listed separately; test: Cytotoxicity against mouse bone marrow macrophages assessed as cell survival at 30 uM after 24 hrs by photomicroscopy analysis; assay type: cell-based; details: macrophage

In the case of `Cc1[nH]c2ccccc2c1-c1ccnc(NCCc2c[nH]c3ccccc23)n1`, the Activity is reported as “Non-toxic”.

molecular target: T1, Interferon-induced, double-stranded RNA-activated protein kinase; test: Competitive inhibition of human recombinant PKR; details: not given

Work on `Cc1[nH]c2ccccc2c1-c1ccnc(NCCc2c[nH]c3ccccc23)n1` yielded a Ki of 3.4 µM.

molecular target: T2, Interferon-induced, double-stranded RNA-activated protein kinase (Mus musculus) (UniProt Q03963); test: Inhibition of poly[I:C]-induced PKR autophosphorylation mouse bone marrow macrophages treated immediately before addition of poly[I:C] by Western blotting; details: not given
T2 sequence (whole entry): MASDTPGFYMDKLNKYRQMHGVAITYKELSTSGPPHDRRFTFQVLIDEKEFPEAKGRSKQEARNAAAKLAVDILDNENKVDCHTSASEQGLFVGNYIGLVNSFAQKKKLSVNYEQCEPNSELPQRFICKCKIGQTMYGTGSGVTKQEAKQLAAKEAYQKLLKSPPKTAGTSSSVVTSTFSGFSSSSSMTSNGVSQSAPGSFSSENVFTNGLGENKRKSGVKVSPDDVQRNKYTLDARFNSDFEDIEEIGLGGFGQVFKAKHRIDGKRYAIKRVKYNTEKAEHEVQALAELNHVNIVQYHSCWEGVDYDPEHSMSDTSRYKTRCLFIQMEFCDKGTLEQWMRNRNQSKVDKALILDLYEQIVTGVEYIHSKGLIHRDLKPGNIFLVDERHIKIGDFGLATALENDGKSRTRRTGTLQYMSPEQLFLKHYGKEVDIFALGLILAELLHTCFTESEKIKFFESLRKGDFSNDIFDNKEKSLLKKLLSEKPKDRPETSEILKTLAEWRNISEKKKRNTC

With `Cc1[nH]c2ccccc2c1-c1ccnc(NCCc2c[nH]c3ccccc23)n1` the inhibition was “Dose-dependent effect”.

molecular target: T2, Interferon-induced, double-stranded RNA-activated protein kinase (Mus musculus); test: Inhibition of poly[I:C]-induced PKR autophosphorylation mouse bone marrow macrophages at 40 uM treated immediately before addition of poly[I:C] by Western blotting; details: not given

With `c1ccc(-c2[nH]c3ccccc3c2-c2ccnc(NC3CCCC3)n2)cc1` the inhibition was “inactive”.
With `c1ccc(-c2[nH]c3ccccc3c2-c2ccnc(NCc3cccnc3)n2)cc1` the inhibition was “inactive”.
